*1 amine or outer side, *2 acyl side, *3 side chain or, on linkers, in order; H or OH if unused. Where a SMILES comes first, the peptide text is derived from it. Bridges are numbered along the chain shown (N, C = ends). [ ]: non-standard residue; d: D form. X1 = O=C(C[C@H](N[*:1])c1ccc(F)cc1)[*:2]; dPhe(4-F) = N[C@H](Cc1ccc(F)cc1)C(=O)O
Tests used:
mouse red blood cells = format: cell-based
Experimental: a Biacore T200 instrument (GE Healthcare) at 25 °C. In this study, the running buffer was HBS-EP+ buffer (10 mM HEPES-KOH (pH 7.4), 150 mM NaCl, 50 μM EDTA, 0.05% Tween 20) containing 0.1% DMSO. The Series S Sensor Chip CM5 was used to fix BAM complex on the surface of Biacore CM5 chip with a density of 9500 RU. The binding mode was multi-cycle kinetics (one sample concentration one cycle). Finally, the binding sensorgrams was analyzed by Biacore evaluation software, and the standard 1:1 model was used for fitting.
(§1) Preliminary evaluation of the antibacterial activity of macrocyclic peptides against E. coli […]
Remove the previously preserved E. coli W3110 cells from the -80 °C refrigerator, scrape a little, inoculate it into 1 mL LB liquid medium, and culture overnight in 37°C shaker. The strain was inoculated into fresh LB liquid medium according to the inoculation ratio of 1:100 and incubated at 37℃ until the OD600 reached about 0.47~0.53. […]
Finally, the plate was scanned and counted. […]
the samples were centrifuged at 1000 rpm for 10 min，and take pictures of the pellet after centrifugation. […] The absorbance of the supernatant at the wavelength of 545 nm was measured by microplate reader, and the percentage of hemolysis of each […]

BAM complex = test system: T1, BAM complex; experiment: SPR binding kinetics to BAM complex; parameters: species or system E. coli; conditions: Biacore T200, 25 °C, multi-cycle kinetics, 1:1 model; for ka for BAM complex: CM5 chip; for Kd: HBS-EP+ buffer pH 7.4 with 0.1% DMSO, BAM complex on CM5 chip (9500 RU)
T1 construct: made in house; host or cells: E. coli BL21(DE3), strain obtained from Xinmiao Fu, Fujian Normal University
Experimental: Expression and purification of the BAM complex
The E. coli BL21(DE3) cells containing all five Bam proteins (BamA, B, C, D, and E) was obtained from Xinmiao Fu of Fujian Normal University and used for expression and purification.
The BL21(DE3) cells plated onto LB-ampicillin agar plates and incubated overnight at 37 °C. A 20 mL culture incubated overnight at 37°C was prepared from a single colony in LB medium supplemented with 100 mg/L of ampicillin. The strain was inoculated into fresh LB liquid medium according to the inoculation ratio of 1:100 and incubated at 37 ℃ for about 4 hours until the OD600 reached about 1.0. The temperature of the incubator was set to 20 ℃ and then cultured for 1 hour, and 200 uM IPTG was added to induce overnight. First of all, the induced cells were collected by freezing centrifuge 3000 rpm for 30 min, and the collected cells were resuspended with Buffer 1 (20 mM Tris-HCl, pH 8.0, 150 mM NaCl), and then crushed low temperature and pressure with a high pressure crusher. The broken cells were centrifuged 1 hour at 4 °C for18000 rpm by high speed centrifuge. After centrifugation at 4 °C 18000 rpm for 1 hour, and the supernatant was discarded and the cell membrane was collected. The collected cell membranes were resuscitated with Buffer 2 (20 mM Tris-HCl, pH 8.0, 300 mM NaCl, 1% DDM) and then dissolved at 4 °C for 2 hours. After dissolving the membrane, the supernatant was collected by high speed centrifuge at 18,000 rpm. The 20 mM imidazole was added to the supernatant and incubated with a 2 mL Ni-NTA sefinoseTM resin column for 1 hour. After incubation, 10 column volumes were washed with Buffer 3 (20 mM Tris-HCl, pH 8.0, 300 mM NaCl, 0.025%DDM) containing 30 mM and 50 mM imidazole respectively. Then, the protein was eluted with Buffer 3 containing 200 mM imidazole, and the eluted protein was collected. Finally, using the 20-fold molar excess of EZ-LinkTM Sulfo-NHS-LC-LC-Biotin for BAM complex, and incubate reaction on ice for 2 hours. After the protein labeling is completed, dialysis is used to purify the labeled protein to remove the remaining unreacted and hydrolyzed biotin reagents. […]
The mobile phase was 0.1% TFA aqueous solution / acetonitrile containing 0.1%
TFA. The purified macrocyclic peptides and fluorinated macrocyclic peptides were confirmed by electrospray ionization mass spectrometry (ESI-MS).
Binding kinetics analysis by SPR
The binding kinetics between the selected peptides and EphA2 were tested by SPR using a Biacore T200 instrument (GE Healthcare) at 25 °C. In this study, the running buffer was HBS-EP+ buffer (10 mM HEPES-KOH (pH 7.4), 150 mM NaCl, 50 μM EDTA, 0.05% Tween 20) containing 0.1% DMSO. Biotin capture kit (GE Healthcare) was used to fix human EphA2 on the surface of Biacore CAP chip with a density of 1050 RU. Five different concentrations of peptides were injected at the flow rate of 30 μL/min, and their kinetic constants were determined. The binding kinetic was quantified by single cycle kinetic method. Finally, the binding sensorgrams was analyzed by Biacore evaluation software, and the standard 1:1 model was used for fitting.
The binding kinetics between the selected peptides and BAM complex were tested by SPR using […]
a Biacore T200 instrument (GE Healthcare) at 25 °C. In this study, the running buffer was HBS-EP+ […]
0.1% DMSO. The Series S Sensor Chip CM5 was used to fix BAM complex on the surface of Biacore CM5 chip with a density of 9500 RU. The binding mode was multi-cycle kinetics (one sample concentration one cycle). Finally, the binding sensorgrams was analyzed by Biacore evaluation software, and the standard 1:1 model was used for fitting.
as §1
Remove the previously preserved E. coli W3110 cells from the -80 °C refrigerator, scrape a little, inoculate it into 1 mL LB liquid medium, and culture overnight in 37°C shaker. The strain was […]

T1 sequence (P0A903 25-344): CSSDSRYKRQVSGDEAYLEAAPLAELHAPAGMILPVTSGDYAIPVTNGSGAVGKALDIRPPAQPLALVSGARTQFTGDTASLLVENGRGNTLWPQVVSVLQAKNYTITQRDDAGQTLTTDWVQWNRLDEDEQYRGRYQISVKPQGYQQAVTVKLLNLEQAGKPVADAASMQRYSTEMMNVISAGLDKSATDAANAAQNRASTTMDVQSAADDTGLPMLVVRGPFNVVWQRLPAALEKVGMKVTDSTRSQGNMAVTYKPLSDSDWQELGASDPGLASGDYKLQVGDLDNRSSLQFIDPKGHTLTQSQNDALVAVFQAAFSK
T1 sequence (P0AC02 20-245, further chain): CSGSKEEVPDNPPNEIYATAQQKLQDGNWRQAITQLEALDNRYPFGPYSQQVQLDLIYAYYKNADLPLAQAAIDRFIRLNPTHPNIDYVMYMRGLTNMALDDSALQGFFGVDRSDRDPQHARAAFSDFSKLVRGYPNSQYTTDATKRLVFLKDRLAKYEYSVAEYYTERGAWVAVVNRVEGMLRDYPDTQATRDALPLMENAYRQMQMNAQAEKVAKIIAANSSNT
T1 sequence (P0A937 20-113, further chain): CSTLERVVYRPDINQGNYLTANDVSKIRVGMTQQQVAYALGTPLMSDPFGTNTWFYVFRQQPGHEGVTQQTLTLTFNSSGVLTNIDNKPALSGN
T1 sequence (P77774 20-392, further chain): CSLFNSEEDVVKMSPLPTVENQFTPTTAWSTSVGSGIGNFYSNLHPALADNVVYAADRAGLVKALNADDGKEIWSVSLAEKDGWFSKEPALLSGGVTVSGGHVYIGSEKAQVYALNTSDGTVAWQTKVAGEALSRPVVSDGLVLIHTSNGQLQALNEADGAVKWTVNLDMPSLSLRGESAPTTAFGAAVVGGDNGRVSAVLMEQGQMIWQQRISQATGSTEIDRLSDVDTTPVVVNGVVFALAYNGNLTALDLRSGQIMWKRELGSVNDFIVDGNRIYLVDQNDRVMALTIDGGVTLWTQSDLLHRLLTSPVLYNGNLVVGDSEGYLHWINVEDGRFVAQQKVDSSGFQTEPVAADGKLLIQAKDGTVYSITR

Row | Structure (SMILES) | hemolytic toxicity towards mouse red blood cells (mouse red blood cells) | ka for BAM complex (BAM complex) | Kd (BAM complex)
1 | CC[C@H](C)[C@@H]1NC(=O)[C@@H](Cc2ccc(F)cc2)NC(=O)CSC[C@@H](C(=O)NCC(N)=O)NC(=O)[C@H]([C@@H](C)O)NC(=O)[C@H](Cc2c[nH]cn2)NC(=O)[C@H](CC(C)C)NC(=O)[C@H](Cc2ccc(O)cc2)NC(=O)[C@H](CC(N)=O)NC(=O)[C@@H](Cc2ccc(F)cc2)NC(=O)[C@H]([C@@H](C)O)NC(=O)[C@H](CC(C)C)NC(=O)[C@H](CO)NC(=O)[C@H](CCCCN)NC(=O)[C@H](Cc2c[nH]cn2)NC(=O)[C@H](Cc2c[nH]c3ccccc23)NC1=O [BAM-f2] ({CH2CO}-[dPhe(4-F)]IWHKSLT[dPhe(4-F)]NYLHTCG-NH2; thioether N-15) | low to negligible hemolytic toxicity | 0.90 ×10 4 M-1s-1 | 755 nM
2 | CC[C@H](C)[C@@H]1NC(=O)[C@H](Cc2ccccc2)NC(=O)[C@H](Cc2c[nH]cn2)NC(=O)[C@H](CCCCN)NC(=O)[C@@H](Cc2ccc(F)cc2)NC(=O)CSC[C@@H](C(=O)NCC(N)=O)NC(=O)[C@H]([C@@H](C)CC)NC(=O)[C@@H]2CCCN2C(=O)[C@H](CO)NC(=O)[C@H](CCCNC(=N)N)NC(=O)[C@H](Cc2ccc(O)cc2)NC(=O)C[C@@H](c2ccc(F)cc2)NC(=O)[C@H](Cc2ccc(O)cc2)NC1=O [BAM-β3] ({CH2CO}-[dPhe(4-F)]KHFIY[X1]YRSPICG-NH2; thioether N-13) | low to negligible hemolytic toxicity | 2.54 ×10 4 M-1s-1 | 453 nM
